Results on 20 compounds are retold here after patent US10479780B2, “Aminopyrazole derivatives” (Chugai Seiyaku Kabushiki Kaisha, priority 2015, dated 2019).

Common to all, as to assay type: biochemical
For test [1], the target named is T1, human Yes1 enzyme (Homo sapiens, UniProt P07947).
T1 construct: made in house
The test is described as follows: Yes1 enzyme inhibitory activity (time-resolved fluorometry, biotinylated peptide phosphorylation). The settings on record: read-out: YES_IC50. An outline of the steps: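 Inhibition was expressed against a compound-free control to give IC50, using TR-FRET read-out (Eu-cryptate anti-pTyr antibody, streptavidin-XL665).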

Test [2] addresses T2, human Src enzyme (Homo sapiens, UniProt P12931).
T2 construct: purchased Carna Biosciences, Inc. 08-173
The test is described as follows: Src enzyme inhibitory activity (time-resolved fluorometry, biotinylated peptide phosphorylation). The settings on record: read-out: SRC_IC50. An outline of the steps: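 Compounds were tested for blocking tyrosine phosphorylation of a biotinylated peptide substrate by recombinant human Src. Phosphorylated product was quantified by time-resolved fluorometry using europium cryptate and XL665 conjugates, and IC50 was calculated against the compound-free control.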

The target in test [3] is T3, human Lck enzyme (Homo sapiens, UniProt P06239).
T3 construct: purchased Carna Biosciences, Inc. 08-170
The test is described as follows: Lck enzyme inhibitory activity (time-resolved fluorometry, biotinylated peptide phosphorylation). The settings on record: read-out: LCK_IC50. An outline of the steps:
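Readout pairs a europium cryptate-labelled anti-phosphotyrosine antibody with XL665-streptavidin, measured by time-resolved fluorescence. IC50 derived from percent inhibition against untreated controls.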

Where [4] appears, read: biotinylated peptide phosphorylation.

Read-outs that look alike come from different tables or passages of the source.

T3 sequence (P06239 whole entry): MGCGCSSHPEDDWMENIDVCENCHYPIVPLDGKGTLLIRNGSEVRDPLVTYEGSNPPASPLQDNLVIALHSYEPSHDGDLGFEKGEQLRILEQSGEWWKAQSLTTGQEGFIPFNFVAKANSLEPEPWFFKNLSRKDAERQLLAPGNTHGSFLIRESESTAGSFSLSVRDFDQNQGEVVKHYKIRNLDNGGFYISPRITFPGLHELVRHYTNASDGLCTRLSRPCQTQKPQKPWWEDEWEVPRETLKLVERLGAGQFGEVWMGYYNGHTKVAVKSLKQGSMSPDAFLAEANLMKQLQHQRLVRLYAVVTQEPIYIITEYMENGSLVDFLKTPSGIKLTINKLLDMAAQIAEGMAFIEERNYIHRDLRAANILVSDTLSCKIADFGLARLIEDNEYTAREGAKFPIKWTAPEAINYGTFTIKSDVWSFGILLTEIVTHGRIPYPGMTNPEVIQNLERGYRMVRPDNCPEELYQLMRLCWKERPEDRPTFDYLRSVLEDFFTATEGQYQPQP
T2 sequence (P12931 whole entry): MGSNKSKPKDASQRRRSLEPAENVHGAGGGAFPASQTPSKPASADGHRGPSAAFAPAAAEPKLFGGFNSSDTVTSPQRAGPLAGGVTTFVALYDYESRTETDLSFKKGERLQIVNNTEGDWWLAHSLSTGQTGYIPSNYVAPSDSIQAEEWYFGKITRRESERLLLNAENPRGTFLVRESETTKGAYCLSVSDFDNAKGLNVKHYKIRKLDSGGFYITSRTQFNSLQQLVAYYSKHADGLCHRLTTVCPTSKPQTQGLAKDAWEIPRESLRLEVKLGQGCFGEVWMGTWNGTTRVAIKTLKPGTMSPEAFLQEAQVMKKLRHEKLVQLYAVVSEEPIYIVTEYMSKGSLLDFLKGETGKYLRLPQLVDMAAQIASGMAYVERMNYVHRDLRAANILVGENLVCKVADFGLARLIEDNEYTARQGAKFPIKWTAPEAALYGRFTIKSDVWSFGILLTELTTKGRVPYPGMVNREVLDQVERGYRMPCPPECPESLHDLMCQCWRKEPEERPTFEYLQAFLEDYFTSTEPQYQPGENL
T1 sequence (P07947 whole entry): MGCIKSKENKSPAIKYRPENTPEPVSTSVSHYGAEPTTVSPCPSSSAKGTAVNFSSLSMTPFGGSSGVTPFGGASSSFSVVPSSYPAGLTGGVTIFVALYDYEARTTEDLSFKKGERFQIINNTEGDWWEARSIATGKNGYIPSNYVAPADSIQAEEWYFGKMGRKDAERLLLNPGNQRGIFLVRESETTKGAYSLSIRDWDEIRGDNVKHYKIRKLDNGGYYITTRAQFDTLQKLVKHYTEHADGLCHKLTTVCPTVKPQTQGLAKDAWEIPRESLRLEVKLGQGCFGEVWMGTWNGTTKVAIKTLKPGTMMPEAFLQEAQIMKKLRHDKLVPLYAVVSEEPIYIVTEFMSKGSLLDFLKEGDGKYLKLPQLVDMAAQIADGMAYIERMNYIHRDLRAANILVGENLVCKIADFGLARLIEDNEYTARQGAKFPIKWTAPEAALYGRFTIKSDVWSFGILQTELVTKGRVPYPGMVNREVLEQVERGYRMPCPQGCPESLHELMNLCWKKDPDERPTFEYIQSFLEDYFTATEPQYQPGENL

Turning to `COc1cc2cc(C(=O)c3cnn(-c4cnc(Oc5c(F)cccc5F)cc4C)c3N)[nH]c2cc1NS(=O)(=O)CC(=O)N1CCOCC1` [Example 5-1-143, N-[2-[5-amino-1-[6-(2,6-difluorophenoxy)-4-methylpyridin-3-yl]pyrazole-4-carbonyl]-5-methoxy-1H-indol-6-yl]-2-morpholin-4-yl-2-oxoethanesulfonamide], the IC50 in test [1] is 0.00059 µM; in test [2], 0.015 µM; in test [3], 0.011 µM.
Turning to `Cc1cc2cc(C(=O)c3cnn(-c4c(C)cc(Oc5ccccc5F)cc4F)c3N)[nH]c2cc1NS(=O)(=O)N1CCOCC1` [Example 4-2-107, N-[2-[5-amino-1-[2-fluoro-4-(2-fluorophenoxy)-6-methylphenyl]pyrazole-4-carbonyl]-5-methyl-1H-indol-6-yl]morpholine-4-sulfonamide], the results for the IC50 in test [1] (setting [4]), in test [2] (setting [4]) and in test [3] (setting [4]) were 0.0024 µM, 0.25 µM and 0.089 µM, respectively.
Regarding `Cc1cc(Oc2c(F)cccc2F)ncc1-n1ncc(C(=O)c2cc3cc(OC(F)F)c(NS(=O)(=O)CCCF)cc3[nH]2)c1N` [Example 4-24-012, N-[2-[5-amino-1-[6-(2,6-difluorophenoxy)-4-methylpyridin-3-yl]pyrazole-4-carbonyl]-5-(difluoromethoxy)-1H-indol-6-yl]-3-fluoropropane-1-sulfonamide], the IC50 in test [1] (setting [4]) was found to be 0.004 µM; in test [2] (setting [4]) it was 0.1 µM; in test [3] (setting [4]), 0.028 µM.
The corresponding values for `Cc1cc(Oc2ccccc2F)ncc1-n1ncc(C(=O)c2cc3cc(F)c(NS(=O)(=O)c4cccc(C#N)c4)cc3[nH]2)c1N` [Example 5-1-556, N-[2-[5-amino-1-[6-(2-fluorophenoxy)-4-methylpyridin-3-yl]pyrazole-4-carbonyl]-5-fluoro-1H-indol-6-yl]-3-cyanobenzenesulfonamide] are 0.0088 µM, 1 µM and 0.15 µM.
For `CC(=O)N1CCC(c2cc3[nH]c(C(=O)c4cnn(-c5ccc(Oc6ccccc6F)cc5C)c4N)cc3cc2OCC(F)F)CC1` [Example 4-17-014, 1-[4-[2-[5-amino-1-[4-(2-fluorophenoxy)-2-methylphenyl]pyrazole-4-carbonyl]-5-(2,2-difluoroethoxy)-1H-indol-6-yl]piperidin-1-yl]ethanone], the IC50 in test [1] (setting [4]) is 0.0045 µM; in test [2] (setting [4]), 0.027 µM; in test [3] (setting [4]), 0.013 µM.
Consider `Cc1cc(Oc2ccccc2F)ncc1-n1ncc(C(=O)c2cc3cc(F)c(N4CC(C)(C)NS4(=O)=O)cc3[nH]2)c1N` [Example 5-1-421, [5-amino-1-[6-(2-fluorophenoxy)-4-methylpyridin-3-yl]pyrazol-4-yl]-[6-(4,4-dimethyl-1,1-dioxo-1,2,5-thiadiazolidin-2-yl)-5-fluoro-1H-indol-2-yl]methanone], for which the IC50 in test [1] (setting [4]) was 0.0011 µM; in test [2] (setting [4]), 0.084 µM; in test [3] (setting [4]) it was 0.017 µM.
For `Cc1cc(Oc2cccc(F)c2F)ccc1-n1ncc(C(=O)c2cc3cc(F)c(NS(=O)(=O)C4CC4)cc3[nH]2)c1N` [Example 4-2-041, N-[2-[5-amino-1-[4-(2,3-difluorophenoxy)-2-methylphenyl]pyrazole-4-carbonyl]-5-fluoro-1H-indol-6-yl]cyclopropanesulfonamide], in that order: 0.00079 µM, 0.084 µM and 0.038 µM.
For `Cc1cc2cc(C(=O)c3cnn(-c4ccc(Oc5ccccc5F)cc4C)c3N)[nH]c2cc1NS(=O)(=O)CC(=O)NC(C)C` [Example 4-10-008, 2-[[2-[5-amino-1-[4-(2-fluorophenoxy)-2-methylphenyl]pyrazole-4-carbonyl]-5-methyl-1H-indol-6-yl]sulfamoyl]-N-propan-2-ylacetamide], in that order: 0.002 µM, 0.054 µM and 0.0096 µM.
Turning to `Cc1cc(Oc2ccccc2F)ccc1-n1ncc(C(=O)c2cc3cc(N4CCOCC4)c(N4CCCC4=O)cc3[nH]2)c1N` [Example 5-1-105, 1-[2-[5-amino-1-[4-(2-fluorophenoxy)-2-methylphenyl]pyrazole-4-carbonyl]-5-morpholin-4-yl-1H-indol-6-yl]pyrrolidin-2-one], the IC50 is 0.00077 µM in test [1], 0.0036 µM in test [2] and 0.0016 µM in test [3].
As to `Cc1cc(Oc2c(F)cccc2F)ncc1-n1ncc(C(=O)c2cc3cc(N4CCOCC4)c(NS(=O)(=O)C4CC4)cc3[nH]2)c1N` [Example 4-24-017, N-[2-[5-amino-1-[6-(2,6-difluorophenoxy)-4-methylpyridin-3-yl]pyrazole-4-carbonyl]-5-morpholin-4-yl-1H-indol-6-yl]cyclopropanesulfonamide], the IC50 was found to be 0.0041 µM in test [1] (setting [4]), 0.17 µM in test [2] (setting [4]) and 0.065 µM in test [3] (setting [4]).
For the compound `Cc1cc(Oc2ccccc2F)ccc1-n1ncc(C(=O)c2cc3cc(F)c(N4CCN(S(C)(=O)=O)CC4)cc3[nH]2)c1N` [Example 5-1-125, [5-amino-1-[4-(2-fluorophenoxy)-2-methylphenyl]pyrazol-4-yl]-[5-fluoro-6-(4-methylsulfonylpiperazin-1-yl)-1H-indol-2-yl] methanone], the IC50 was found to be 0.00071 µM in test [1], 0.033 µM in test [2] and 0.0092 µM in test [3].
For `Cc1cc(Oc2ccccc2F)ccc1-n1ncc(C(=O)c2cc3cc(OCC(F)F)c(N4C(=O)[C@@H]5C[C@H](NC(=O)OCC6c7ccccc7-c7ccccc76)CN5C4=O)cc3[nH]2)c1N` [Example 5-1-253, 9H-fluoren-9-ylmethyl N-[(6S,7aS)-2-[2-[5-amino-1-[4-(2-fluorophenoxy)-2-methylphenyl]pyrazole-4-carbonyl]-5-(2,2-difluoroethoxy)-1H-indol-6-yl]-1,3-dioxo-5,6,7,7a-tetrahydropyrrolo[1,2-c]imidazol-6-yl] carbamate], in that order: 0.00033 µM, 0.023 µM and 0.046 µM.
Turning to `Cc1cc(Oc2ccccc2F)ncc1-n1ncc(C(=O)c2cc3cc(OC(F)F)c(C4CCN(S(C)(=O)=O)CC4)cc3[nH]2)c1N` [Example 4-17-009, [5-amino-1-[6-(2-fluorophenoxy)-4-methylpyridin-3-yl]pyrazol-4-yl]-[5-(difluoromethoxy)-6-(1-methylsulfonylpiperidin-4-yl)-1H-indol-2-yl]methanone], the IC50 was found to be 0.0018 µM in test [1] (setting [4]), 0.014 µM in test [2] (setting [4]) and 0.0049 µM in test [3] (setting [4]).
For the compound `Cc1cc(Oc2c(F)cccc2F)ncc1-n1ncc(C(=O)c2cc3cc(OCC(F)F)c(NS(=O)(=O)CCC(F)F)cc3[nH]2)c1N` [Example 4-24-033, N-[2-[5-amino-1-[6-(2,6-difluorophenoxy)-4-methylpyridin-3-yl]pyrazole-4-carbonyl]-5-(2,2-difluoroethoxy)-1H-indol-6-yl]-3,3-difluoropropane-1-sulfonamide], the IC50 was 0.0049 µM in test [1] (setting [4]), 0.088 µM in test [2] (setting [4]) and 0.016 µM in test [3] (setting [4]).
The corresponding values for `COc1cc2cc(C(=O)c3cnn(-c4ccc(Oc5ccccc5F)cc4C)c3N)[nH]c2cc1N1CCCS1(=O)=O` [Example 4-14-002, [5-amino-1-[4-(2-fluorophenoxy)-2-methylphenyl]pyrazol-4-yl]-[6-(1,1-dioxo-1,2-thiazolidin-2-yl)-5-methoxy-1H-indol-2-yl]methanone] are 0.0014 µM, 0.0088 µM and 0.0056 µM.
As to `Cc1cc(-n2ncc(C(=O)c3cc4cc(C)c(N5C(=O)NC6(CCC6)C5=O)cc4[nH]3)c2N)ccc1Oc1ccccc1F` [Example 5-1-468, 7-[2-[5-amino-1-[4-(2-fluorophenoxy)-3-methylphenyl]pyrazole-4-carbonyl]-5-methyl-1H-indol-6-yl]-5,7-diazaspiro[3.4]octane-6,8-dione], the IC50 in test [1] (setting [4]) came out at 0.011 µM; in test [2] (setting [4]) it was 7.8 µM; in test [3] (setting [4]), 0.43 µM.
For `Cc1cc(Oc2ccccc2F)cc(F)c1-n1ncc(C(=O)c2cc3cc(F)c(NS(=O)(=O)CCCF)cc3[nH]2)c1N` [Example 4-2-019, N-[2-[5-amino-1-[2-fluoro-4-(2-fluorophenoxy)-6-methylphenyl]pyrazole-4-carbonyl]-5-fluoro-1H-indol-6-yl]-3-fluoropropane-1-sulfonamide], in that order: 0.0053 µM, 0.072 µM and 0.04 µM.
For `Cc1cc(Oc2c(F)cccc2F)ncc1-n1ncc(C(=O)c2cc3cc(OC(F)F)c(N4C(=O)NC(C)(C)C4=O)cc3[nH]2)c1N` [Example 4-23-034, 3-[2-[5-amino-1-[6-(2,6-difluorophenoxy)-4-methylpyridin-3-yl]pyrazole-4-carbonyl]-5-(difluoromethoxy)-1H-indol-6-yl]-5,5-dimethylimidazolidine-2,4-dione], in that order: 0.0015 µM, 0.054 µM and 0.0067 µM.
For `Cc1cc(Oc2ccccc2F)ccc1-n1ncc(C(=O)c2cc3cc(OC(F)F)c(N4CCOC4=O)cc3[nH]2)c1N` [Example 4-21-007, 3-[2-[5-amino-1-[4-(2-fluorophenoxy)-2-methylphenyl]pyrazole-4-carbonyl]-5-(difluoromethoxy)-1H-indol-6-yl]-1,3-oxazolidin-2-one], in that order: 0.00051 µM, 0.0087 µM and 0.0065 µM.
With `Cc1cc(Oc2ccccc2Cl)cc(F)c1-n1ncc(C(=O)c2cc3cc(Cl)c(NS(C)(=O)=O)cc3[nH]2)c1N` [Example 4-2-082, N-[2-[5-amino-1-[4-(2-chlorophenoxy)-2-fluoro-6-methylphenyl]pyrazole-4-carbonyl]-5-chloro-1H-indol-6-yl]methanesulfonamide], the IC50 amounted to 0.022 µM in test [1] (setting [4]), 0.31 µM in test [2] (setting [4]) and 0.16 µM in test [3] (setting [4]).
